Reference: patent US20190134005A1 (BioMarin Pharmaceutical Inc., priority 2016, published 2019)

Each molecule was assayed against T1, human CGT (Homo sapiens, UniProt Q16880) (assay: Assay 1: CGT Enzymatic Assay (RapidFire/MS/MS, 0.01% Tween 80)). Conditions: Table 1, Compounds of Formula (I) and Formula (II); CGT enzymatic assay, C6-NBD-dihydro-galactosylceramide readout; read-out: IC50.
T1 sequence (Q16880 21-541): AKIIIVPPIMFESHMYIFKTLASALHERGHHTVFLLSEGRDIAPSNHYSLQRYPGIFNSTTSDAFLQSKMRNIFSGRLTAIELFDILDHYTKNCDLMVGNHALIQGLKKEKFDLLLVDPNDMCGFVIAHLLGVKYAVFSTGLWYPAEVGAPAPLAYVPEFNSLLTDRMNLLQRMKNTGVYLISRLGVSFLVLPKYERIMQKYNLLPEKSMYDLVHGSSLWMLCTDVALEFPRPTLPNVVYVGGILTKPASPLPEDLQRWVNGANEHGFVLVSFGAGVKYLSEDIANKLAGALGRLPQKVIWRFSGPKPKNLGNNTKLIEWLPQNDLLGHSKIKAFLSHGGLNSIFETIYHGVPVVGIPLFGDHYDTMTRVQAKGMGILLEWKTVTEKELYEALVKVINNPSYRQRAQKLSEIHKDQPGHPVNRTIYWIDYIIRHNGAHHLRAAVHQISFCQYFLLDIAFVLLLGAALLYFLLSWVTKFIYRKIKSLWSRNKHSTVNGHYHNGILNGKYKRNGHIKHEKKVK
Format: biochemical

IC50 | Compound
1000 to 10000 nM | COC[C@@]1(C)N(c2ccc(Cl)cc2)C(=O)N(c2ccc(Cl)cc2)[C@@]1(O)c1cccc(OC(F)(F)F)c1 [Compound 296-1, (4R,5R)-1,3-bis(4-chlorophenyl)-4-hydroxy-5-(methoxymethyl)-5-methyl-4-(3-(trifluoromethoxy)phenyl)imidazolidin-2-one]
< 1000 nM | N#Cc1ccc(N2C(=O)N(c3ccc(Cl)cc3)C3(CCC3)C2(O)c2cccc(C#N)c2)cc1 (stereo not shown) [Compound 289, 3-(5-(4-chlorophenyl)-7-(4-cyanophenyl)-8-hydroxy-6-oxo-5,7-diazaspiro[3.4]octan-8-yl)benzonitrile]
< 1000 nM | N#Cc1ccc(N2C(=O)N(c3ccc(Cl)cc3)C(O)(c3cccc(OC(F)(F)F)c3)C23CCC3)cc1 (stereo not shown) [Compound 269, 4-(7-(4-chlorophenyl)-8-hydroxy-6-oxo-8-(3-(trifluoromethoxy)phenyl)-5,7-diazaspiro[3.4]octan-5-yl)benzonitrile]
< 1000 nM | N#Cc1cccc(C2(O)N(c3ccc(C(F)(F)F)cc3)C(=O)N(c3ccc(C(F)(F)F)cc3)C23COC3)c1 (stereo not shown) [Compound 303, 3-(8-hydroxy-6-oxo-5,7-bis(4-(trifluoromethyl)phenyl)-2-oxa-5,7-diazaspiro[3.4]octan-8-yl)benzonitrile]

Compound | IC50
Cc1ccc(N2C(=O)N(c3ccc(C#N)cc3)C(O)(c3cccc(C#N)c3)C23COC3)cc1 (stereo not shown) [Example 308, 3-(7-(4-cyanophenyl)-8-hydroxy-6-oxo-5-(p-tolyl)-2-oxa-5,7-diazaspiro[3.4]octan-8-yl)benzonitrile] | < 1000 nM

Same assay, conditions: Table 1, Compounds of Formula (I) and Formula (II); CGT enzymatic assay; read-out: IC50

IC50 | Compound
10000 to 50000 nM | CCC1(O)C(=O)N(c2ccc(Br)cc2)C(=O)N1c1ccc(Br)cc1 (stereo not shown) [Compound 143, 1,3-bis(4-bromophenyl)-5-ethyl-5-hydroxyimidazolidine-2,4-dione]
< 1000 nM | CC#Cc1cccc(C2(O)[C@@H](C)N(c3ccc(Cl)cc3)C(=O)N2c2ccc(Cl)cc2)c1 (stereo partly drawn) [Compound 103-2, (5R)-1,3-bis(4-chlorophenyl)-4-hydroxy-5-methyl-4-(3-(prop-1-yn-1-yl)phenyl)imidazolidin-2-one]
1000 to 10000 nM | C[C@@H]1N(c2ccccc2)C(=O)N(c2ccccc2)C1(O)c1cccc(OC(F)(F)F)c1 (stereo partly drawn) [Example 230-1, (5S)-4-hydroxy-5-methyl-1,3-diphenyl-4-(3-(trifluoromethoxy)phenyl)imidazolidin-2-one]
< 1000 nM | CCC[C@@H]1N(c2ccc(Br)cc2)C(=O)N(c2ccc(Br)cc2)C1(O)c1cccc(CC)c1 (stereo partly drawn) [Compound 88-1, (5S)-1,3-bis(4-bromophenyl)-4-(3-ethylphenyl)-4-hydroxy-5-propylimidazolidin-2-one]
< 1000 nM | CC(C)[C@H]1N(c2ccc(C(F)(F)F)cc2)C(=O)N(c2ccc(C(F)(F)F)cc2)C1(O)c1cccc(OC(F)(F)F)c1 (single isomer, unassigned) [Example 196-2]
< 1000 nM | Cc1c(-c2cccc(Br)c2)n(-c2ccc(Cl)cc2)c(=O)n1-c1ccc(Cl)cc1 [Compound 246, 4-(3-bromophenyl)-1,3-bis(4-chlorophenyl)-5-methyl-1,3-dihydro-2H-imidazol-2-one]
< 1000 nM | CCCCC1N(c2ccc(Cl)cc2)C(=O)N(c2ccc(Cl)cc2)C1(O)c1cccc(C#N)c1 (stereo not shown) [Compound 116, 3-(5-butyl-1,3-bis(4-chlorophenyl)-4-hydroxy-2-oxoimidazolidin-4-yl)benzonitrile]
< 1000 nM | CC(C)[C@@H]1N(c2ccc(C(F)(F)F)cc2)C(=O)N(c2ccc(C(F)(F)F)cc2)C1(O)c1cccc(OC(F)(F)F)c1 (stereo partly drawn) [Example 196-1, (5S)-4-hydroxy-5-isopropyl-4-(3-(trifluoromethoxy)phenyl)-1,3-bis(4-(trifluoromethyl)phenyl)imidazolidin-2-one]
< 1000 nM | CC(=O)c1cccc(C2(O)C(C)N(c3ccc(Cl)cc3)C(=O)N2c2ccc(Cl)cc2)c1 (stereo not shown) [Compound 124, 4-(3-acetylphenyl)-1,3-bis(4-chlorophenyl)-4-hydroxy-5-methylimidazolidin-2-one]
> 50000 nM | O=C1N(c2ccc(Br)cc2)CC(O)(c2ccccn2)N1c1ccc(Br)cc1 (stereo not shown) [Example 9, 1,3-bis(4-bromophenyl)-4-hydroxy-4-(pyridin-2-yl)imidazolidin-2-one]
< 1000 nM | CC(C)C1N(c2ccc(C(F)(F)F)cc2)C(=O)N(c2ccc(C(F)(F)F)cc2)C1(O)c1cccc(OC(F)(F)F)c1 (stereo not shown) [Example 196, 4-hydroxy-5-isopropyl-4-(3-(trifluoromethoxy)phenyl)-1,3-bis(4-(trifluoromethyl)phenyl)imidazolidin-2-one]
< 1000 nM | CCC[C@@H]1N(c2ccc(Cl)cc2)C(=O)N(c2ccc(Cl)cc2)C1(O)c1cccc(C#N)c1 (single isomer, unassigned) [Compound 101-1]
< 1000 nM | C[C@@H]1N(c2ccc(Br)cc2)C(=O)N(c2ccc(Br)cc2)C1(O)c1cccc(C(F)(F)F)c1 (stereo partly drawn) [Compound 74-1, (5S)-1,3-bis(4-bromophenyl)-4-hydroxy-5-methyl-4-(3-(trifluoromethyl)phenyl)imidazolidin-2-one]
> 50000 nM | C[C@]1(c2cccc(C(F)(F)F)c2)C(O)N(c2ccc(Cl)cc2)C(=O)N1c1ccc(Cl)cc1 (stereo partly drawn) [Example 190-1, (4S)-1,3-bis(4-chlorophenyl)-5-hydroxy-4-methyl-4-(3-(trifluoromethyl)phenyl)imidazolidin-2-one]
< 1000 nM | CC[C@@H]1N(c2ccc(Cl)cc2)C(=O)N(c2ccc(Cl)cc2)C1(O)c1cccc(OC(F)F)c1 (stereo partly drawn) [Compound 118-1, (5S)-1,3-bis(4-chlorophenyl)-4-(3-(difluoromethoxy)phenyl)-5-ethyl-4-hydroxyimidazolidin-2-one]
< 1000 nM | N#Cc1cccc(C2(O)C(CC3CC3)N(c3ccc(Cl)cc3)C(=O)N2c2ccc(Cl)cc2)c1 (stereo not shown) [Compound 132, 3-(1,3-bis(4-chlorophenyl)-5-(cyclopropylmethyl)-4-hydroxy-2-oxoimidazolidin-4-yl)benzonitrile]
< 1000 nM | CCc1cccc(C2(O)[C@@H](C)N(c3ccc(Cl)cc3)C(=O)N2c2ccc(Cl)cc2)c1 (stereo partly drawn) [Compound 69-2, (5R)-1,3-bis(4-chlorophenyl)-4-(3-ethylphenyl)-4-hydroxy-5-methylimidazolidin-2-one]
< 1000 nM | CCC[C@@H]1N(c2ccc(Br)cc2)C(=O)N(c2ccc(Br)cc2)C1(O)c1cccc(OC(F)(F)F)c1 (stereo partly drawn) [Compound 112-1, (5S)-1,3-bis(4-bromophenyl)-4-hydroxy-5-propyl-4-(3-(trifluoromethoxy)phenyl)imidazolidin-2-one]
< 1000 nM | CC1(c2cccc(C(F)(F)F)c2)C(O)N(c2ccc(Cl)cc2)C(=O)N1c1ccc(Cl)cc1 (stereo not shown) [Example 190, 1,3-bis(4-chlorophenyl)-5-hydroxy-4-methyl-4-(3-(trifluoromethyl)phenyl)imidazolidin-2-one]
> 50000 nM | N#Cc1ccc(C2(O)CN(c3ccc(Br)cc3)C(=O)N2c2ccc(Br)cc2)cc1 (stereo not shown) [Compound 61, 4-(1,3-bis(4-bromophenyl)-4-hydroxy-2-oxoimidazolidin-4-yl)benzonitrile]
1000 to 10000 nM | CCCc1c(-c2ccccc2)n(-c2ccc(Br)cc2)c(=O)n1-c1ccc(Br)cc1 [Compound 261, 1,3-bis(4-bromophenyl)-4-phenyl-5-propyl-1,3-dihydro-2H-imidazol-2-one]
< 1000 nM | O=C1N(c2ccc(Cl)cc2)[C@@]2(CCOC2)[C@](O)(c2cccc(OC(F)(F)F)c2)N1c1ccc(Cl)cc1 [Compound 234-3, (4R,5R)-1,3-bis(4-chlorophenyl)-4-hydroxy-4-(3-(trifluoromethoxy)phenyl)-7-oxa-1,3-diazaspiro[4.4]nonan-2-one]
< 1000 nM | CCC[C@@H]1N(c2ccc(Br)cc2)C(=O)N(c2ccc(Br)cc2)C1(O)c1cccc(C)c1 (stereo partly drawn) [Compound 96-1, (5S)-1,3-bis(4-bromophenyl)-4-hydroxy-5-propyl-4-(m-tolyl)imidazolidin-2-one]
1000 to 10000 nM | N#Cc1cc(Cl)cc(C2(O)CN(c3ccc(Br)cc3)C(=O)N2c2ccc(Br)cc2)c1 (stereo not shown) [Compound 113, 3-(1,3-bis(4-bromophenyl)-4-hydroxy-2-oxoimidazolidin-4-yl)-5-chlorobenzonitrile]
1000 to 10000 nM | Cc1ccc(N2CC(O)(c3ccccc3)N(c3ccc(C)cc3)C2=O)cc1 (stereo not shown) [Example 17, 4-hydroxy-4-phenyl-1,3-di-p-tolylimidazolidin-2-one]
< 1000 nM | CCc1ccc(N2C(=O)N(c3ccc(CC)cc3)C(O)(c3cccc(C#N)c3)C2C)cc1 (stereo not shown) [Compound 104, 3-(1,3-bis(4-ethylphenyl)-4-hydroxy-5-methyl-2-oxoimidazolidin-4-yl)benzonitrile]
< 1000 nM | CC(O)c1cccc(C2(O)C(C)N(c3ccc(Cl)cc3)C(=O)N2c2ccc(Cl)cc2)c1 (stereo not shown) [Compound 137, 1,3-bis(4-chlorophenyl)-4-hydroxy-4-(3-(1-hydroxyethyl)phenyl)-5-methylimidazolidin-2-one]
< 1000 nM | CCc1c(-c2cccc(C(F)(F)F)c2)n(-c2ccc(Cl)cc2)c(=O)n1-c1ccc(Cl)cc1 [Example 40, 1,3-bis(4-chlorophenyl)-4-ethyl-5-(3-(trifluoromethyl)phenyl)-1,3-dihydro-2H-imidazol-2-one]
1000 to 10000 nM | O=C1N(c2ccc(Cl)cc2)CC(O)(c2cccc(Br)c2)N1c1ccc(Cl)cc1 (stereo not shown) [Example 55, 4-(3-bromophenyl)-1,3-bis(4-chlorophenyl)-4-hydroxyimidazolidin-2-one]
